In US11192867B2, “Microbiocidal oxadiazole derivatives” (SYNGENTA PARTICIPATIONS AG, priority 2016, dated 2021):

Tests used:
Phakopsora pachyrhizi = experiment: Fungicidal activity against Phakopsora pachyrhizi / soybean / leaf disc preventative (Asian soybean rust); type: in vivo; conditions: foliar, 200 ppm in the applied formulation, soybean leaf disks, vs untreated control, read-out: disease control
Protocol: Leaf disks or leaf segments of various plant species are cut from plants grown in a greenhouse. The cut leaf disks or segments are placed in multiwell plates (24-well format) onto water agar. The leaf disks are sprayed with a test solution before (preventative) or after (curative) inoculation. Compounds to be tested are prepared as DMSO solutions (max. 10 mg/ml) which are diluted to the appropriate concentration with 0.025% Tween20 just before spraying. The inoculated leaf disks or segments are incubated under defined conditions (temperature, relative humidity, light, etc.) according to the respective test system. A single evaluation of disease level is carried out 3 to 14 days after inoculation, depending on the pathosystem. Percent disease control relative to the untreated check leaf disks or segments is then calculated. Soybean leaf disks are placed on water agar in multiwell plates (24-well format) and sprayed with the formulated test compound diluted in water. One day after application leaf discs are inoculated by spraying a spore suspension on the lower leaf surface. After an incubation period in a climate cabinet of 24-36 hours in darkness at 20° C. and 75% rh leaf disc are kept at 20° C. with 12 hours light/12 hours and 75% rh. The activity of a compound is assessed as percent disease control compared to untreated when an appropriate level of disease damage appears in untreated check leaf disks (12 to 14 days after application). The following compounds at 200 ppm in the applied formulation give at least 80% disease control in this test when compared to untreated control leaf disks under the same conditions, which show extensive disease development.

[1] = tested on: Glomerella lagenarium (Colletotrichum lagenarium); experiment: Fungicidal activity against Glomerella lagenarium (Colletotrichum lagenarium) liquid culture / cucumber / preventative (anthracnose); type: cell-based; conditions: Colletotrichum orbiculare, 72 h; 20 ppm in the applied formulation; liquid culture (PDB), growth inhibition measured photometrically 3 to 4 days after application; vs untreated control; read-out: disease control
Protocol: Mycelia fragments or conidia suspensions of a fungus prepared either freshly from liquid cultures of the fungus or from cryogenic storage, are directly mixed into nutrient broth. DMSO solutions of the test compound (max. 10 mg/ml) are diluted with 0.025% Tween20 by a factor of 50 and 10 μl of this solution is pipetted into a microtiter plate (96-well format). The nutrient broth containing the fungal spores/mycelia fragments is then added to give an end concentration of the tested compound. The test plates are incubated in the dark at 24° C. and 96% relative humidity. The inhibition of fungal growth is determined photometrically after 2 to 7 days, depending on the pathosystem, and percent antifungal activity relative to the untreated check is calculated.
Conidia of the fungus from cryogenic storage are directly mixed into nutrient broth (PDB—potato dextrose broth). After placing a (DMSO) solution of test compound into a microtiter plate (96-well format), the nutrient broth containing the fungal spores is added. The test plates are incubated at 24° C. and the inhibition of growth is measured photometrically 3 to 4 days after application.
The following compounds at 20 ppm in the applied formulation give at least 80% disease control in this test when compared to untreated control under the same conditions, which show extensive disease development.

[2] = tested on: Puccinia recondita f. sp. Tritici; experiment: Fungicidal activity against Puccinia recondita f. sp. Tritici / wheat / leaf disc preventative (brown rust); type: in vivo; conditions: foliar, 200 ppm in the applied formulation, wheat leaf segments cv. Kanzler, inoculated 1 day after application, vs untreated control, read-out: disease control
Protocol: Leaf disks or leaf segments of various plant species are cut from plants grown in a greenhouse. The cut leaf disks or segments are placed in multiwell plates (24-well format) onto water agar. The leaf disks are sprayed with a test solution before (preventative) or after (curative) inoculation. Compounds to be tested are prepared as DMSO solutions (max. 10 mg/ml) which are diluted to the appropriate concentration with 0.025% Tween20 just before spraying. The inoculated leaf disks or segments are incubated under defined conditions (temperature, relative humidity, light, etc.) according to the respective test system. A single evaluation of disease level is carried out 3 to 14 days after inoculation, depending on the pathosystem. Percent disease control relative to the untreated check leaf disks or segments is then calculated. Wheat leaf segments cv. Kanzler were placed on agar in multiwell plates (24-well format) and sprayed with the formulated test compound diluted in water. The leaf disks were inoculated with a spore suspension of the fungus 1 day after application. The inoculated leaf segments were incubated at 19° C. and 75% relative humidity (rh) under a light regime of 12 hours light/12 hours darkness in a climate cabinet and the activity of a compound was assessed as percent disease control compared to untreated when an appropriate level of disease damage appears in untreated check leaf segments (7 to 9 days after application). The following compounds at 200 ppm in the applied formulation give at least 80% disease control in this test when compared to untreated control leaf disks under the same conditions, which show extensive disease development.

Structure (SMILES)	pest or weed control at 200 ppm (Phakopsora pachyrhizi) [%]	inhibition of growth at 20 ppm [1] [%]	pest or weed control at 200 ppm [2] [%]
CCCCON=CCNC(=O)c1ccc(-c2noc(C(F)(F)F)n2)cc1 [Compound 1.85, N-(2-butoxyiminoethyl)-4-[5-(trifluoromethyl)-1,2,4-oxadiazol-3-yl]benzamide]	≥ 80	≥ 80	
CC(C=NOCC1CC1)NC(=O)c1ccc(-c2noc(C(F)(F)F)n2)cc1 (stereo not shown) [Compound 1.57, N-[2-(cyclopropyl-methoxyimino)-1-methyl-ethyl]-4-[5-(trifluoromethyl)-1,2,4-oxadiazol-3-yl]benzamide]	≥ 80	≥ 80	
O=C(NCC=NOCc1ccc(F)cc1)c1ccc(-c2noc(C(F)(F)F)n2)cc1 [Compound 1.96, N-[2-[(4-fluorophenyl)methoxyimino]ethyl]-4-[5-(trifluoromethyl)-1,2,4-oxadiazol-3-yl]benzamide]		≥ 80	
COc1ccc(CON=C(C)CNC(=O)c2ccc(-c3noc(C(F)(F)F)n3)cc2)cc1 [Compound 1.108, N-[2-[(4-methoxyphenyl)methoxyimino]propyl]-4-[5-(trifluoromethyl)-1,2,4-oxadiazol-3-yl]benzamide]		≥ 80	
CC(CNC(=O)c1ccc(-c2noc(C(F)(F)F)n2)cc1)=NOCc1ccc([N+](=O)[O-])cc1 [Compound 1.105, N-[2-[(4-nitrophenyl)methoxyimino]propyl]-4-[5-(trifluoromethyl)-1,2,4-oxadiazol-3-yl]benzamide]			≥ 80
CC(C=NOCC(F)(F)F)NC(=O)c1ccc(-c2noc(C(F)(F)F)n2)cc1 (stereo not shown) [Compound 1.51, N-[1-methyl-2-(2,2,2-trifluoroethoxy-imino)ethyl]-4-[5-(trifluoromethyl)-1,2,4-oxadiazol-3-yl]benzamide]	≥ 80	≥ 80	
COc1ccccc1CON=C(C)CNC(=O)c1ccc(-c2noc(C(F)(F)F)n2)cc1 [Compound 1.112, N-[2-[(2-methoxyphenyl)methoxyimino]propyl]-4-[5-(trifluoromethyl)-1,2,4-oxadiazol-3-yl]benzamide]		≥ 80	
CC(C=NOCc1ccc(Cl)cc1)NC(=O)c1ccc(-c2noc(C(F)(F)F)n2)cc1 (stereo not shown) [Compound 1.59, N-[2-[(4-chlorophenyl)methoxyimino]-1-methyl-ethyl]-4-[5-(trifluoromethyl)-1,2,4-oxadiazol-3-yl]benzamide]	≥ 80		
CC(C=NOCC=C(Cl)Cl)NC(=O)c1ccc(-c2noc(C(F)(F)F)n2)cc1 (stereo not shown) [Compound 1.34, N-[2-(3,3-dichloroallyl-oxyimino)-1-methyl-ethyl]-4-[5-(trifluoromethyl)-1,2,4-oxadiazol-3-yl]benzamide]	≥ 80	≥ 80	
O=C(NCC=NOCc1cccc(Cl)c1)c1ccc(-c2noc(C(F)(F)F)n2)cc1 [Compound 1.97, N-[2-[(3-chlorophenyl)methoxyimino]ethyl]-4-[5-(trifluoromethyl)-1,2,4-oxadiazol-3-yl]benzamide]			≥ 80
CCCCCCCCCCCCON=CCNC(=O)c1ccc(-c2noc(C(F)(F)F)n2)cc1 [Compound 1.73, N-(2-dodecoxyimino-ethyl)-4-[5-(trifluoromethyl)-1,2,4-oxadiazol-3-yl]benzamide]	≥ 80		
Cc1ccc(CON=CCNC(=O)c2ccc(-c3noc(C(F)(F)F)n3)cc2)cc1 [Compound 1.63, N-[2-(p-tolylmethoxy-imino)ethyl]-4-[5-(trifluoromethyl)-1,2,4-oxadiazol-3-yl]benzamide]	≥ 80		
CC(C=NOCc1ccc(F)cc1)NC(=O)c1ccc(-c2noc(C(F)(F)F)n2)cc1 (stereo not shown) [Compound 1.52, N-[2-[(4-fluorophenyl)methoxyimino]-1-methyl-ethyl]-4-[5-(trifluoromethyl)-1,2,4-oxadiazol-3-yl]benzamide]	≥ 80	≥ 80	
CC(C=NOCc1ccccc1F)NC(=O)c1ccc(-c2noc(C(F)(F)F)n2)cc1 (stereo not shown) [Compound 1.24, N-[2-[(2-fluorophenyl)methoxyimino]-1-methyl-ethyl]-4-[5-(trifluoromethyl)-1,2,4-oxadiazol-3-yl]benzamide]	≥ 80	≥ 80	
COc1ccccc1CON=CC(C)NC(=O)c1ccc(-c2noc(C(F)(F)F)n2)cc1 (stereo not shown) [Compound 1.23, N-[2-[(2-methoxyphenyl)methoxyimino]-1-methyl-ethyl]-4-[5-(trifluoromethyl)-1,2,4-oxadiazol-3-yl]benzamide]	≥ 80		
O=C(NCC=NOCc1ccc(Cl)cc1)c1ccc(-c2noc(C(F)(F)F)n2)cc1 [Compound 1.103, N-[2-[(4-chlorophenyl)methoxyimino]ethyl]-4-[5-(trifluoromethyl)-1,2,4-oxadiazol-3-yl]benzamide]			≥ 80
O=C(NCC=NOCc1c(Cl)cccc1Cl)c1ccc(-c2noc(C(F)(F)F)n2)cc1 [Compound 1.84, N-[2-[(2,6-dichlorophenyl)methoxyimino]ethyl]-4-[5-(trifluoromethyl)-1,2,4-oxadiazol-3-yl]benzamide]	≥ 80		
CCCCON=C(C)CNC(=O)c1ccc(-c2noc(C(F)(F)F)n2)cc1 [Compound 1.128, N-(2-butoxyiminopropyl)-4-[5-(trifluoromethyl)-1,2,4-oxadiazol-3-yl]benzamide]	≥ 80	≥ 80	
CC(CNC(=O)c1ccc(-c2noc(C(F)(F)F)n2)cc1)=NOCc1ccc(F)cc1 [Compound 1.140, N-[2-[(4-fluorophenyl)methoxyimino]propyl]-4-[5-(trifluoromethyl)-1,2,4-oxadiazol-3-yl]benzamide]		≥ 80	
CC(CNC(=O)c1ccc(-c2noc(C(F)(F)F)n2)cc1)=NOCc1ccccc1 [Compound 1.134, N-(2-benzyloxyimino-propyl)-4-[5-(trifluoromethyl)-1,2,4-oxadiazol-3-yl]benzamide]	≥ 80	≥ 80	
CCCON=CC(C)NC(=O)c1ccc(-c2noc(C(F)(F)F)n2)cc1 (stereo not shown) [Compound 1.27, N-(1-methyl-2-propoxyimino-ethyl)-4-[5-(trifluoromethyl)-1,2,4-oxadiazol-3-yl]benzamide]	≥ 80	≥ 80	
CC(C=NOCc1ccccc1)NC(=O)c1ccc(-c2noc(C(F)(F)F)n2)cc1 (stereo not shown) [Compound 1.47, N-(2-benzyloxyimino-1-methyl-ethyl)-4-[5-(trifluoromethyl)-1,2,4-oxadiazol-3-yl]benzamide]	≥ 80	≥ 80	
CC(C=NOCc1ccccc1Cl)NC(=O)c1ccc(-c2noc(C(F)(F)F)n2)cc1 (stereo not shown) [Compound 1.22, N-[2-[(2-chlorophenyl)methoxyimino]-1-methyl-ethyl]-4-[5-(trifluoromethyl)-1,2,4-oxadiazol-3-yl]benzamide]	≥ 80	≥ 80	
